According to patent US5298502A, “Method and composition for photodynamic treatment and detection of tumors” (priority 1991, dated 1994):

Experiments:
mosquito larvae = assay: Insecticidal test against mosquito larvae; settings: in vivo
HeLa cells [1] = assay: Proto IX production in HeLa cells, extract of cells alone (Example 7); format: cell-based; settings: Homo sapiens, 100 uM agent, first formula (background-subtracted), read-out: increase in the amount of Proto IX relative to the control
Protocol: In a series of experiments along the lines of Examples 1 and 2, cultures of HeLa cells were incubated in the presence of 100 uM of various treating agents, listed below. The percentage given, next to each treating agent, indicates the increase in the amount of Proto IX produced in the presence of that treating agent relative to the amount produced by the control in the same experiment.
As in Examples 1 and 2, the data for this Example 7 were based on measurements of fluorescence (e.g. in counts per second, "cps"). In this Example, however, the measurements were made on an extract of the cells alone (in contrast to Examples 1 and 2 in which the disrupted cells and culture medium together were extracted), the fluorometric medium was the one described in Example 5 (containing 1% Tween-20, 50 mM Tris-HCl, 1 mM EDTA and 1 mM dithioerythritol, pH 8.5), and a cps measurement of the fluorometric medium per se was also made. In calculating the foregoing data for this Example, the following formula was used to calculate the percentage increases: [formula] where Ca is the counts per second for the sample resulting from treatment with the agent, Cc is the counts per second for the control sample, and Cm is the counts per second for the fluorometric medium per se (i.e. the background fluoroescence). On reviewing the data it was observed that Cc -Cm for this set of experiments was […] compared to Cm; for instance, individual measured values were 49025 and 52069 for Cc and 4295 for Cm. […] Accordingly, the data were recalculated using the formula: [formula] with the following results: 6a 336%; 5b 148%; 6c 154%; 6d 510%; 6e 320%; 6f 280%; 6g 329%; 6h 178%; 6i 171%; 6j 185%; 7a 118%; 7b 142%; 7c 103%; 7d 128%; 7e 173%; 7f 118%; 7q 155%; 7h 118%.

[2] = tested on: DBA/2 Ha mice with SMT-F subcutaneous tumors; assay: Proto IX content of tissues of tumor-bearing mice fed the agent (Example 6); format: in vivo; settings: for concentration of Proto IX in tissue, Adrenal / concentration of Proto IX in tissue, Intestine / concentration of Proto IX in tissue, Kidneys / concentration of Proto IX in tissue, Liver / concentration of Proto IX in tissue, Tumor / Proto IX Mean Cps per gram, Intestine: 2000 ppm in feed; for Proto IX Mean Cps per gram, Adrenal / Proto IX Mean Cps per gram, Kidneys / Proto IX Mean Cps per gram, Liver / Proto IX Mean Cps per gram, Tumor / Weight of Tumor as excised: 2000 ppm in feed Days 2-10, sacrificed Day 10 (6j Day 7)
Protocol: In this Example the enzyme-inhibiting agents were added to the feed of tumor-bearing mice; for some of the mice, used as a control, no agent was added to the feed. The mice were then sacrificed and their kidneys, intestines, adrenal glands, liver and tumor were removed and analyzed for their content of Proto IX. The following enzyme-inhibiting agents were employed: [drawing 10]
More particularly, the mice were DBA/2 Ha mice which had been injected with SMT-F subcutaneous tumors on Day 0 in the right shoulder. The mice, individually housed, received untreated Purina Rodent Chow 5001 Mash on Day 1; thereafter on Days 2 through 10 the mice received the same Mash treated with 2000 ppm of the inhibiting agent being tested (or, for the controls, the same untreated Mash). The treatment of the Mash was effected by blending it with a small amount of an acetone solution of the agent to be tested. The mice were then sacrificed on Day 10, except for the mouse treated with the agent designated as 6j; the latter was sacrificed on Day 7. The tissues were refrigerated at 4° C. overnight, then blotted dry, and the fresh weight of each tissue sample was recorded. The tissues were then homogenized in 5 mL, or lo mL in the cases of intestines and liver, of acetone-0.1 N NH4 OH (9:I, v/v). The homogenates were then centrifuged at 1500 g and the supernatants were analyzed on a SPEX FAII2 spectrofluorometer; excitation 400 nm, emission 630 nm wavelengths, the optima for Proto IX. Proto IX accumulation was determined as CPS (fluorescent counts per second emitted) per gram of tissue. The results are tabulated below (results are averages for two mice for each treatment, except for treatments with agents 6f, 6h, 6i and 6j in each of which only one mouse was treated): […]

HeLa cells [3] = assay: Proto IX in HeLa cells and culture medium, cell growth observations (Example 8); format: cell-based, human; settings: 100 μM agent
Protocol: In a manner similar to Examples 1 and 2, cultures of HeLa cells were incubated in the presence of 100 μM of various treating agents, listed below. The agent was added in dilute solution in dimethylsulfoxide (DMSO),and the controls contained 0.2% DMSO v/v. After such incubation the culture medium was poured off, removing it from the cells, the cells were loosened from the culture flasks by addition of 0.25% W/v trypsin Which remained in contact With the cells for 20 minutes at 37° C., after which a fluorometric medium was added to the flask. The fluorometric medium was the same as that described in Example 7 except that its pH was 6.5; this medium also acted as an extractant. The resulting extract was analyzed for proto IX content. The separated culture medium was also analyzed fluorometrically for Proto IX content. The pairs of percentages given, next to each treating agent, indicate the amount of Proto IX produced in the presence of that treating agent relative to the amount produced by the control in the same experiment; the first number of each pair relates to the concentration of Proto IX in the culture medium and the second number relates to the concentration in the cells. [drawing 12]

chondrosarcoma = assay: Photodynamic treatment of chondrosarcoma in rats fed the agent (Example 9); format: in vivo, Sprague-Dawley rats; settings: three rats, 2000 ppm in feed for 6 days, 630 nm light 270 J/cm^2
Protocol: Specifically, three Sprague-Dawley rats of average weight 120 g were placed on a diet of feed containing 2000 ppm of the agent for a period of 6 days. On day 3, chondrosarcoma was implanted into the right hind limb of each rat by injecting 0.3 mL of a suspension of the tumor cells (about one million tumor cells). On day 6 the right hind limb of each rat was shaven and depilated, the size of each tumor was measured, and the tumor area and surrounding skin were then exposed to non-thermal doses of 630 nm light for a total of 270 J/cm^2.
In another set of experiments, 20 of the rats were placed on the same diet as above (i.e. feed containing 2000 ppm of agent), provided ad libitum, for 10 days before the treatment with the light, and the injection of the tumor cell suspension was made after the animals had been on the diet for 7 days. Such an injection causes the formation of a tumor having a well defined vascular network within 1 to 2 days. At the time of the treatment with light the tumors had diameters of 5-8 mm and were free of evident necrosis.

[4] = samples diluted with 3 parts basic acetone to one part sample

SMILES | activity against mosquito larvae (mosquito larvae) | activation at 100 µM (HeLa cells [1]) [%] | concentration of Proto IX in tissue, Adrenal [2] | concentration of Proto IX in tissue, Intestine [2] | concentration of Proto IX in tissue, Kidneys [2] | concentration of Proto IX in tissue, Liver [2] | concentration of Proto IX in tissue, Tumor [2] | Proto IX Mean Cps per gram, Adrenal [2] [Cps per gram × 10^3] | Proto IX Mean Cps per gram, Kidneys [2] [Cps per gram × 10^3] | Proto IX Mean Cps per gram, Liver [2] [Cps per gram × 10^3] | Proto IX Mean Cps per gram, Tumor [2] [Cps per gram × 10^3] | Weight of Tumor as excised [2] [mg] | Proto IX Mean Cps per gram, Intestine [2, 4] [Cps per gram × 10^3] | Proto IX Mean Cps per gram, Intestine ([2]; undiluted samples (6j Day 7)) [Cps per gram × 10^3] | activity in the test in Example 8 (Proto IX production) (HeLa cells [3]) | tumor regression on the day after light treatment (chondrosarcoma)
CCOC(=O)C(Cl)Cc1cc(-n2nc(C)n(C(F)F)c2=O)c(F)cc1Cl (centres unmarked) | active |  |  |  |  |  |  |  |  |  |  |  |  |  |  | 
CCOC(=O)C(C)Oc1ccc(Oc2cc(-n3nc(C)n(C(F)F)c3=O)c(F)cc2Cl)cc1 (centres unmarked) [Agent 6a] | active | 337 | 60 ug of Proto IX per gram of tis | 54 ug of Proto IX per gram of tis | 99 ug of Proto IX per gram of tis | 39 ug of Proto IX per gram of tis | 11 ug of Proto IX per gram of tis | 6572 | 10817 | 4291 | 1203 | 143 | 5870 |  |  | 
COC(=O)c1cc(Oc2ccc(C(F)(F)F)cc2Cl)ccc1[N+](=O)[O-] [Agent 6b] |  | 366 | 23 ug of Proto IX per gram of tis | 51 ug of Proto IX per gram of tis | 22 ug of Proto IX per gram of tis | 12 ug of Proto IX per gram of tis | 14 ug of Proto IX per gram of tis | 2529 | 2441 | 1261 | 1520 | 90 | 5577 |  |  | 
CCCn1c(=O)ccc2cc(F)c(-n3nc(C)n(C(F)F)c3=O)cc21 [Agent 6f] |  | 280 | 51 ug of Proto IX per gram of tis | 11 ug of Proto IX per gram of tis | 6 ug of Proto IX per gram of tis | 11 ug of Proto IX per gram of tis | 4 ug of Proto IX per gram of tis | 5611 | 661 | 1170 | 449 | 69 |  | 1157 |  | 
C#CCN1C(=O)C(F)Oc2cc(F)c(-n3nc(C)n(C(F)F)c3=O)cc21 (centres unmarked) [Agent 6g] |  | 326 | 18 ug of Proto IX per gram of tis | 4 ug of Proto IX per gram of tis | 6 ug of Proto IX per gram of tis | 7 ug of Proto IX per gram of tis | 2 ug of Proto IX per gram of tis | 1984 | 606 | 803 | 166 | 250 |  | 466 |  | 
CC(C)Oc1cc(-n2c(=O)n3n(c2=O)CCCC3)c(F)cc1Cl [Agent 6h] |  | 431 | 21 ug of Proto IX per gram of tis | 5 ug of Proto IX per gram of tis | 5 ug of Proto IX per gram of tis | 8 ug of Proto IX per gram of tis | 3 ug of Proto IX per gram of tis | 2259 | 585 | 914 | 298 | 192 |  | 584 |  | 
C#CCN1C(=O)COc2cc(F)c(-n3nc4c(c3Cl)CCCC4)cc21 [Agent 6i] |  | 544 | 337 ug of Proto IX per gram of tis | 32 ug of Proto IX per gram of tis | 37 ug of Proto IX per gram of tis | 14 ug of Proto IX per gram of tis | 9 ug of Proto IX per gram of tis | 36940 | 4014 | 1510 | 932 | 20 |  | 3454 |  | 
C#CCN1C(=O)COc2cc(F)c(N=c3sc(=S)n4n3CCCC4)cc21 [Agent 6j] |  | 469 | 4 ug of Proto IX per gram of tis | 5 ug of Proto IX per gram of tis | 3 ug of Proto IX per gram of tis | 5 ug of Proto IX per gram of tis | 11 ug of Proto IX per gram of tis | 491 | 315 | 538 | 1251 | 11 |  | 572 |  | 
CS(=O)(=O)NC(=O)c1cc(Oc2ccc(C(F)(F)F)cc2Cl)ccc1[N+](=O)[O-] [Compound 8c] |  |  |  |  |  |  |  |  |  |  |  |  |  |  | much less active than compound 6c | did not produce any regression of the tumors
CCS(=O)(=O)Nc1cc(-n2nnn(CCCF)c2=O)c(F)cc1Cl [Compound 8h] | active |  |  |  |  |  |  |  |  |  |  |  |  |  |  | 
